Consider three compounds from patent publication US4083994A, “Choleretics” (Hisamitsu Pharmaceutical Co., Inc., priority 1975, dated 1978).

Assay [1] relates to bile secretion. Kind of assay: Bile secretion test in dogs. The note with it: dog, into duodenum, volume in 1 h before administration = 100%. In kind it is in vivo, male mongrel dogs. How it is done: Male mongrel dogs weighing approximately 8 kg were anesthetized with intravenous injection of […] of pentobarbital and further with subcutaneous injection of urethane at a dose of 1.0 g/kg and laparotomized. One canula was inserted into the common bile duct and directed to the liver for collection of the bile, and the other canula was inserted into the duodenum for the drug administration. The cholecystic duct was ligated and the gallbladder bile was aspirated with an injection syringe. The operation was finished by suture of the peritoneum. The bile was collected for one hour from 30 minutes after the operation. The animals were given the test drugs, each 50 mg of which was suspended in 1 ml of 5% gum arabic aqueous solution, through the canula for the drug administration. The bile was collected at hourly intervals for 6 hours after the drug administration. Defining the volume of the bile secreted for one hour before the drug administration as 100%, the volume secreted at hourly intervals after the drug administration was expressed in %, as shown in Table 2.
The mean volume secreted for one hour before the drug administration was 1798 μl.
This suspension was used as a choleretic of the present invention. A male mongrel dog weighing 8.8 kg was fasted overnight and anesthetized by subcutaneous injection of 1.0 mg/kg of urethane and laparotomized. One canula was inserted into the common bile duct and directed to the liver for collection of the bile, and the other canula was also inserted into the duodenum for the drug administration. Subsequently, the cholecystic duct was ligated and the gallbladder bile was aspirated with an injection syringe. The operation was finished after suturing the peritoneum. The bile was collected for one hour from 30 minutes after the operation, and subsequently, 44 ml of the test drug prepared above (250 mg/kg) was given through the canula for the drug administration. The volume of the bile secreted for the first, second and third one hour after the drug administration were 2.2, 2.1 and 1.9 times larger, respectively, than that secreted for one hour before the drug administration.
About 2.5 g of 9-propionyloxy-p-menth-1-en-8-ol was weighed accurately and suspended in 50 ml of 5% gum arabic aqueous solution. This suspension was used as a choleretic of the present invention. A male mongrel dog weighing 7.6 kg was fasted overnight and anesthetized by subcutaneous injection of 1.0 mg/kg of urethane and then laparotomized. One canula was inserted into the common bile duct and directed to the liver for collection of the bile, and the other canula into the duodenum for the drug administration. Subsequently, the cholecystic duct was ligated and the gallbladder bile was aspirated with an injection syringe. The operation was finished by suturing the peritoneum. The bile was collected for one hour from 30 minutes after the operation, and 50 ml (330 mg/kg) of the test drug prepared above was administered through the canula for the drug administration. The volume of the bile secreted for the first, second and third one hour after the drug administration was 3.2, 5.0 and 4.7 times larger, respectively, than that secreted for one hour before the drug administration.

In assay [2] the test system is bile secretion. Kind of assay: Bile secretion test in rats. In kind it is in vivo, male Wistar rats. The note with it: rat, oral, volume in 1 h before administration = 100%. On the procedure: Male Wistar rats weighing 200-210 g were fasted overnight and laparotomized under urethane anesthesia(Subcutaneous injection at a dose of 1.5 g/kg). A polyethylene tube was inserted into the common bile duct. The bile was collected for one hour from 30 minutes after the operation. Subsequently, the animals were given orally the test drugs, each 50 mg of which was suspended in 1 ml of 5% gum arabic aqueous solution. The bile was collected for 5 hours after the drug administration. The volume of the bile secreted at hourly intervals after the drug administration was expressed in %, defining the volume secreted for one hour before the drug administration as 100%, as shown in Table 1.
About 500 mg of p-menth-1-ene-8,9-diol were weighed accurately, and suspended in 10 ml of 5% gum arabic aqueous solution. […] Male rats of Wistar strain weighing 200 g were fasted overnight, anesthetized by subcutanous injection of 0.3 g of urethane and laparotomized. A polyethylene tube was inserted into the common bile duct. The bile was collected for one hour from 30 minutes after the operation. […]
About 500 mg of 9-acetoxy-p-menth-1-en-8-ol was weighed accurately and suspended in 10ml of 5% gum arabic aqueous solution. […] Male rats of Wistar strain weighing about 210 g were fasted overnight and anesthetized by subcutaneous injection of 0.32 g of urethane and then laparotomized. A polyethylene tube was inserted into the common bile duct, and the bile secreted through the duct was collected for one hour from 30 minutes after the operation. Subsequently, the choleretic of the present invention was administered orally in a volume of 1.05 ml (250 mg/kg).

For the compound `C=C(C)C1CC=C(C)CC1` (centres unmarked) [p-Mentha-1,8-diene, p-mentha-1,8-diene], the “Bile volume secreted after administration” value (from here on “Bile volume secreted”) in the assay with bile secretion [1] (250 mg/kg, 0-1 hr) was 220%; in the assay on bile secretion [1] (250 mg/kg, 1-2 hr), 213%; in the assay on bile secretion [1] (250 mg/kg, 2-3 hr) it was 185%; in the assay with bile secretion [1] (250 mg/kg, 3-4 hr), 110%; in the assay on bile secretion [1] (250 mg/kg, 4-5 hr), 85%; with bile secretion [2] (80 mg/kg, 0-1 hr) it was 101%. Moreover, the “Bile volume secreted” value turned out to be 100% in the assay on bile secretion [2] (80 mg/kg, 1-2 hr); 100% with bile secretion [2] (80 mg/kg, 2-3 hr); 94% in the assay on bile secretion [2] (80 mg/kg, 3-4 hr); 91% in the assay on bile secretion [2] (80 mg/kg, 4-5 hr); 104% in the assay with bile secretion [2] (250 mg/kg, 0-1 hr); 108% in the assay with bile secretion [2] (250 mg/kg, 1-2 hr). Besides, the “Bile volume secreted” value with bile secretion [2] (250 mg/kg, 2-3 hr) came to 109%; with bile secretion [2] (250 mg/kg, 3-4 hr), 108%; with bile secretion [2] (250 mg/kg, 4-5 hr) it was 104%; in the assay on bile secretion [2] (750 mg/kg, 0-1 hr) it was 111%; with bile secretion [2] (750 mg/kg, 1-2 hr) it was 125%; in the assay on bile secretion [2] (750 mg/kg, 2-3 hr) it was 128%. Moreover, the “Bile volume secreted” value was determined as 131% in the assay on bile secretion [2] (750 mg/kg, 3-4 hr) and 128% in the assay with bile secretion [2] (750 mg/kg, 4-5 hr).
In the case of `CCC(O)c1ccccc1` (racemic) [Felicur, phenylpropanol, reference compound], the “Bile volume secreted” value in the assay with bile secretion [1] (50 mg/kg, 0-1 hr) is 231%; in the assay with bile secretion [1] (50 mg/kg, 1-2 hr), 230%; with bile secretion [1] (50 mg/kg, 2-3 hr), 188%; in the assay with bile secretion [1] (50 mg/kg, 3-4 hr), 147%; in the assay on bile secretion [2] (250 mg/kg, 0-1 hr), 204%; with bile secretion [2] (250 mg/kg, 1-2 hr) it was 172%. In addition, the “Bile volume secreted” value with bile secretion [2] (250 mg/kg, 2-3 hr) is 138%; with bile secretion [2] (250 mg/kg, 3-4 hr), 108%; with bile secretion [2] (250 mg/kg, 4-5 hr) it was 88%.
Take `CC(C)[C@@H]1CC[C@@H](C)C[C@H]1O` [1-Menthol, 1-menthol, reference compound]: the “Bile volume secreted” value came to 134% with bile secretion [2] (80 mg/kg, 0-1 hr); 114% in the assay with bile secretion [2] (80 mg/kg, 1-2 hr); 100% in the assay with bile secretion [2] (80 mg/kg, 2-3 hr); 95% in the assay with bile secretion [2] (80 mg/kg, 3-4 hr); 89% in the assay with bile secretion [2] (80 mg/kg, 4-5 hr); 139% in the assay with bile secretion [2] (230 mg/kg, 0-1 hr). Moreover, the “Bile volume secreted” value in the assay on bile secretion [2] (230 mg/kg, 1-2 hr) is 137%; in the assay on bile secretion [2] (230 mg/kg, 2-3 hr), 133%; in the assay on bile secretion [2] (230 mg/kg, 3-4 hr) it was 117%; in the assay with bile secretion [2] (230 mg/kg, 4-5 hr), 111%; in the assay with bile secretion [2] (750 mg/kg, 0-1 hr), 152%; in the assay with bile secretion [2] (750 mg/kg, 1-2 hr), 143%. In addition, the “Bile volume secreted” value in the assay with bile secretion [2] (750 mg/kg, 2-3 hr) came out at 138%; in the assay with bile secretion [2] (750 mg/kg, 3-4 hr), 122%; in the assay on bile secretion [2] (750 mg/kg, 4-5 hr), 111%.
